Reference: US6908919B2, “Substituted polycyclic aryl and heteroaryl pyrazinones useful for selective inhibition of the coagulation cascade” (Pharmacia Corporation, priority 1999, dated 2005)
Like-named read-outs stand apart in the source and are kept apart here.

Tests used:
[1] = target: T1, recombinant soluble tissue factor and recombinant human factor VIIa (TF-VIIa) (Homo sapiens, UniProt P08709); experiment: TF-VIIa Assay; type: biochemical
T1 construct: conversion of coagulation factor VII to VIIa by Xa; purchased American Diagnostica, Greenwich Conn; host or cells: VIIa purchased; soluble TF made in house in E. coli
T1 sequence (P08709 61-212 limits assumed): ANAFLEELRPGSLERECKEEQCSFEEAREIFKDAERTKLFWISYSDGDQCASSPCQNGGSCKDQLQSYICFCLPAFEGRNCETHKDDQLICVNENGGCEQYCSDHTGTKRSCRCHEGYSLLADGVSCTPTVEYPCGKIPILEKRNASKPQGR
T1 sequence (P08709 213-466 limits assumed): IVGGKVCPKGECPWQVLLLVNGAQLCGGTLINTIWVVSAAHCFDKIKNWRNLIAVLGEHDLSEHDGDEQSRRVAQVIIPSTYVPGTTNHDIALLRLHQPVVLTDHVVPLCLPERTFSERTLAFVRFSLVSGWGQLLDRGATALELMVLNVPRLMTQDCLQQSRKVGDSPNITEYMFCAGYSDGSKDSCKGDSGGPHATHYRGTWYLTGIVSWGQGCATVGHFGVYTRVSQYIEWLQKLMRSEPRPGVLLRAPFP
T1 sequence (P13726 33-251 partner limits assumed): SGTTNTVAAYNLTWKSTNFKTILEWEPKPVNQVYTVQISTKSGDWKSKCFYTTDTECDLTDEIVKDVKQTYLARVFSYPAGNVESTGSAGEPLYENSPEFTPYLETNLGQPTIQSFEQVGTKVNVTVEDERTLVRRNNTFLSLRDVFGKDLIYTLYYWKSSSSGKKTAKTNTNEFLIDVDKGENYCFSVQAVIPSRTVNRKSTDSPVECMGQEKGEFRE

[2] = target: Human factor Xa (Homo sapiens, UniProt P00742); experiment: Xa Assay; type: biochemical; set-up: purchased Enzyme Research Laboratories, South Bend Ind; conditions: for inhibition at 100 µM: at 100 μM inhibitor
Human factor Xa, sequence (P00742 41-179 limits assumed): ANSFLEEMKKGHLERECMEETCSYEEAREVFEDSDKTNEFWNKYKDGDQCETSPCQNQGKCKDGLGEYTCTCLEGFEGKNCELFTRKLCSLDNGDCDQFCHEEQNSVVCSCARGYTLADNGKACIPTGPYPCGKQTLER
Human factor Xa, sequence (P00742 235-488 limits assumed): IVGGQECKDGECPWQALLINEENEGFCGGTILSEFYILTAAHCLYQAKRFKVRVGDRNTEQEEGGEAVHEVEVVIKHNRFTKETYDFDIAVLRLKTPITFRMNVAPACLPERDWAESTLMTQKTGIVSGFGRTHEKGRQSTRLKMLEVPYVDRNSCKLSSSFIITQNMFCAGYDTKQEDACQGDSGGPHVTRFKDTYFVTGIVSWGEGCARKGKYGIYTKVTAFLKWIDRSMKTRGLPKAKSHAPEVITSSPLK

SMILES | % Inhibition TF-VIIa (30 µM) ([1]; at 30 µM inhibitor) | % Inhibition TF-VIIa (100 µM) ([1]; inhibitor at 100 µM) | % Inhibition Factor Xa (100 µM) ([2]; inhibitor at 100 µM) | other results
N=C(N)NCC#CCNC(=O)Cn1c(-c2ccccc2)cnc(NCCc2ccccc2)c1=O [Example 36] | 5% |  |  | % Inhibition Factor Xa (30 µM) ([2]; at 30 µM inhibitor): 0%
N=C(N)c1ccc(CNC(=O)Cn2c(Cc3ccccc3)c(Cl)nc(NCCc3ccccc3)c2=O)cc1 [Example 20] | 41% @ 30 |  |  | % Inhibition Factor Xa (30 µM) ([2]; at 30 µM inhibitor): 6% @ 30
O=C(Cn1c(CCc2ccccc2)c(Cl)nc(NCCc2cccnc2)c1=O)NCCc1ccncc1 [Example E-0069] |  | 0% | 0% | 
O=C(Cn1c(-c2cccc(Cl)c2)c(Cl)nc(NCCc2cccc(Cl)c2)c1=O)NCCc1ccncc1 [Example E-0091] |  | 1% | 4% | 
COc1ccc(-c2c(Cl)nc(NCc3ccccc3)c(=O)n2CC(=O)NCCc2ccncc2)cc1 [Example E-0097] |  | 0% | 3% | 
N=C(N)c1ccc(CNC(=O)Cn2c(-c3ccccc3)c(Cl)nc(NCC3CC3)c2=O)cc1 [Example 1517-43] |  |  |  | % Inhibition TF-VIIa (30 µM) ([1]; at 30 µM): 25%; % Inhibition Factor Xa (30 µM) ([2]; at 30 µM): 0%
N=C(N)c1ccc(CNC(=O)Cn2c(-c3ccccc3)c(Cl)nc(NCC(F)(F)F)c2=O)cc1 [1507-41] | 48% |  |  | % Inhibition Factor Xa (30 µM) ([2]; at 30 µM inhibitor): 17%
N=C(N)c1ccc(CNC(=O)Cn2c(-c3ccccc3)c(Cl)nc(NCc3cc(F)cc(C(F)(F)F)c3)c2=O)cc1 [1512-29] | 47% |  |  | % Inhibition Factor Xa (30 µM) ([2]; at 30 µM inhibitor): 4%
O=C(Cn1c(Cc2ccccc2)c(Cl)nc(NCCc2ccc(Cl)cc2)c1=O)NCCc1ccncc1 [Example E-0060] |  | 0% | 0% | 
N=C(N)c1ccc(C(=O)NCCn2c(-c3cccc(N)c3)c(Cl)nc(NC3CCC3)c2=O)cc1 [Example 136] |  |  |  | IC50 ([1]; read-out: IC50 TF-VIIa): 10700 nM; inhibition at 100 µM [2]: 15%
COc1ccc(-c2c(Cl)nc(NCCc3ccc(Cl)cc3)c(=O)n2CC(=O)NCCc2cccnc2)cc1 [Example E-0107] |  | 4% | 6% | 
Cc1cc(Cl)cc(Cl)c1CNc1nc(Cl)c(-c2ccccc2)n(CC(=O)NCc2ccc(C(=N)N)cc2)c1=O [1512-45] | 27% |  |  | % Inhibition Factor Xa (30 µM) ([2]; at 30 µM inhibitor): 11%
N=C(N)c1ccc(CNC(=O)Cn2c(-c3ccccc3)c(Cl)nc(NC(Cc3ccccc3)c3ccccc3)c2=O)cc1 (stereo not drawn) [1507-07] | 25% |  |  | 
O=C(Cn1c(-c2cccc(Cl)c2)c(Cl)nc(NCCc2cccc(Cl)c2)c1=O)NCCc1ccncc1 [Example E-0079] |  | 0% | 4% | 
O=C(Cn1c(-c2cccc(Cl)c2)c(Cl)nc(NCCc2ccccc2)c1=O)NCCc1ccncc1 [Example E-0088] |  | 0% | 3% | 
O=C(Cn1c(Cc2ccccc2)c(Cl)nc(NCc2ccccc2)c1=O)NCCc1ccncc1 [Example E-0057] |  | 0% | 6% | 
Nc1cccc(-c2c(Cl)nc(NC3CCC3)c(=O)n2CC(=O)NCc2ccccc2)c1 [Example 99] | 6% @ 30 |  |  | % Inhibition Factor Xa (30 µM) ([2]; at 30 µM inhibitor): 8% @ 30
O=C(Cn1c(-c2ccc(Cl)cc2)c(Cl)nc(NCCc2ccncc2)c1=O)NCCc1ccncc1 [Example E-0022] |  | 0% | 0% | 
O=C(Cn1c(-c2ccc(Cl)cc2)c(Cl)nc(NCc2ccncc2)c1=O)NCCc1ccncc1 [Example E-0032] |  | 0% | 0% | 
N=C(N)c1ccc(CNC(=O)C(Cc2ccccc2)n2c(-c3ccccc3)c(Cl)nc(NC3CCC3)c2=O)cc1 (stereo not drawn) [Example 1517-08] | 43% |  |  | % Inhibition Factor Xa (30 µM) ([2]; at 30 µM inhibitor): 0%
O=C(Cn1c(-c2cccc(Cl)c2)c(Cl)nc(NCCc2ccc(Cl)cc2)c1=O)NCCc1ccncc1 [Example E-0082] |  | 4% | 4% | 
CC(CNc1nc(Cl)c(-c2cccc(N)c2)n(CC(=O)NCc2ccc(C(=N)N)cc2)c1=O)C(=O)O (stereo not drawn) [Example 129] |  |  |  | IC50 ([1]; cell adds 'at 100 μM'): 58 nM; inhibition at 100 µM [2]: 22%
CC(C)Nc1nc(Cl)c(-c2cc(N)cc(C(N)=O)c2)n(CC(=O)NCc2ccc(C(=N)N)cc2)c1=O [Example 128-1] |  |  |  | IC50 ([1]; read-out: IC50 TF-VIIa): 22 nM; inhibition at 100 µM [2]: 25%
CC(C)Nc1nc(Cl)c(-c2cc(N)cc(C(=O)NCCCc3ccccc3)c2)n(CC(=O)NCc2ccc(C(=N)N)cc2)c1=O [Example 128-21] |  |  |  | IC50 ([1]; read-out: IC50 TF-VIIa): 37 nM

SMILES | % Inhibition TF-VIIa (30 µM) ([1]; at 30 µM inhibitor) | % Inhibition TF-VIIa (100 µM) ([1]; inhibitor at 100 µM) | % Inhibition Factor Xa (100 µM) ([2]; inhibitor at 100 µM) | other results
N=C(N)c1ccc(CNC(=O)Cn2c(-c3ccccc3)c(Cl)nc(NCc3ccc(Cl)cc3Cl)c2=O)cc1 [1507-22] | 45% |  |  | 
N=C(N)c1ccc(CNC(=O)Cn2c(-c3ccccc3)c(Cl)nc(NC3Cc4ccccc4C3)c2=O)cc1 [1507-08] | 7% |  |  | % Inhibition Factor Xa (30 µM) ([2]; at 30 µM inhibitor): 1%
N=C(N)c1ccc(CNC(=O)Cn2c(-c3ccccc3)c(Cl)nc(NCc3c(F)cccc3C(F)(F)F)c2=O)cc1 [1512-44] | 43% |  |  | % Inhibition Factor Xa (30 µM) ([2]; at 30 µM inhibitor): 6%
N=C(N)c1ccc(CNC(=O)Cn2c(-c3ccc4c(c3)OCO4)c(Cl)nc(NCCN3CCOCC3)c2=O)cc1 [1471-44] | 34% |  |  | % Inhibition Factor Xa (30 µM) ([2]; at 30 µM inhibitor): 13%
N=C(N)c1ccc(CNC(=O)Cn2c(-c3ccc(Cl)cc3)c(Cl)nc(NCc3ccncc3)c2=O)cc1 [1471-19] | 33% |  |  | % Inhibition Factor Xa (30 µM) ([2]; at 30 µM inhibitor): 26%
O=C(Cn1c(-c2ccccc2)c(Cl)nc(NCCN2CCOCC2)c1=O)NCCc1ccncc1 [Example E-0015] |  | 0% | 0% | 
O=C(Cn1c(-c2cccc(Cl)c2)c(Cl)nc(NCc2ccccc2)c1=O)NCCc1cccnc1 [Example E-0086] |  | 0% | 4% | 
O=C(Cn1c(Cc2ccccc2)c(Cl)nc(NCc2ccncc2)c1=O)NCCc1ccncc1 [Example E-0064] |  | 0% | 0% | 
O=C(Cn1c(-c2ccc(-c3ccccc3)cc2)c(Cl)nc(NCc2ccccc2)c1=O)NCCc1ccncc1 [Example E-0049] |  |  |  | % Inhibition TF-VIIa (100 µM) [1]: 2%; % Inhibition Factor Xa (100 µM) [2]: 0%
CC(C)Nc1nc(Cl)c(-c2cc(N)cc(C(=O)NCC(c3ccccc3)c3ccccc3)c2)n(CC(=O)NCc2ccc(C(=N)N)cc2)c1=O [Example 128-22] |  |  |  | IC50 ([1]; read-out: IC50 TF-VIIa): 52 nM
CCCCNc1nc(Cl)c(-c2ccccc2)n(CC(=O)NCc2ccc(C(=N)N)cc2)c1=O [Example 1517-35] |  |  |  | % Inhibition TF-VIIa (30 µM) ([1]; at 30 µM): 33%; % Inhibition Factor Xa (30 µM) ([2]; at 30 µM): 0%
O=C(Cn1c(-c2ccc(-c3ccccc3)cc2)c(Cl)nc(NCc2ccccc2)c1=O)NCCc1ccncc1 [Example E-0109] |  |  |  | % Inhibition TF-VIIa (100 µM) [1]: 2%; % Inhibition Factor Xa (100 µM) [2]: 3%
COc1ccc(-c2c(Cl)nc(NCc3ccccc3)c(=O)n2CC(=O)NCCc2cccnc2)cc1 [Example E-0098] |  | 0% | 2% | 
O=C(Cn1c(-c2ccc(Cl)cc2)c(Cl)nc(NCc2ccncc2)c1=O)NCCc1ccncc1 [Example E-0024] |  | 0% | 0% | 
COc1ccc(-c2c(Cl)nc(NCCc3cccc(Cl)c3)c(=O)n2CC(=O)NCCc2ccncc2)cc1 [Example E-0103] |  | 2% | 3% | 
O=C(Cn1c(-c2ccccc2)c(Cl)nc(NCc2ccccc2)c1=O)NCCc1ccncc1 [Example E-0009] |  | 0% | 1% | 
CC(C)Nc1nc(Cl)c(-c2cc(N)cc(C(=O)NC3CCc4ccccc4C3)c2)n(CC(=O)NCc2ccc(C(=N)N)cc2)c1=O (stereo not drawn) [Example 128-24] |  |  |  | IC50 ([1]; read-out: IC50 TF-VIIa): 18.7 nM
CC(C)Nc1nc(Cl)c(-c2cc(N)cc(C(=O)O)c2)n(CC(=O)NCc2ccc(C(=N)N)cc2)c1=O [Example 123] |  |  |  | IC50 ([1]; read-out: IC50 TF-VIIa): 20 nM
CC(C)Nc1nc(Cl)c(-c2cc(N)cc(C(=O)NCc3ccc4ccccc4c3)c2)n(CC(=O)NCc2ccc(C(=N)N)cc2)c1=O [Example 128-23] |  |  |  | IC50 ([1]; read-out: IC50 TF-VIIa): 33.7 nM
N=C(N)c1ccc(CNC(=O)Cn2c(-c3ccccc3)c(Cl)nc(NCc3cccc4ccccc34)c2=O)cc1 [1507-28] | 38% |  |  | 
C[C@@H](Nc1nc(Cl)c(-c2cccc(N)c2)n(CC(=O)NCc2ccc(C(=N)N)cc2)c1=O)C(=O)O [Example 134] |  |  |  | IC50 ([1]; read-out: IC50 TF-VIIa): 51 nM
CC(C)Nc1nc(Cl)c(-c2cc(N)cc(C(=O)NCc3ccccc3Cl)c2)n(CC(=O)NCc2ccc(C(=N)N)cc2)c1=O [Example 128-10] |  |  |  | IC50 ([1]; read-out: IC50 TF-VIIa): 9 nM
N=C(N)c1ccc(CNC(=O)Cn2c(-c3ccc(C(F)(F)F)cc3)c(Cl)nc(NC3CCC3)c2=O)cc1 [1515-20] | 32% |  |  | 
N=C(N)c1ccc(CNC(=O)Cn2c(-c3cccc(Cl)c3)c(Cl)nc(NCCc3ccncc3)c2=O)cc1 [1471-29] |  |  |  | % Inhibition Factor Xa (30 µM) ([2]; at 30 µM inhibitor): 21%
